The results in this text go back to US8809372B2, “Pyridine derivatives” (Endo Pharmaceuticals, Inc., priority 2011, dated 2014).

Structures are written as SMILES.

Assay [1] concerns the target T1, human CYP17 in H295R adrenocortical carcinoma cells (Homo sapiens, UniProt P05093).
T1 construct: H295R Adrenocortical carcinoma cells [NCI-H295A, ATCC Number CRL-2128, American Type Culture Collection; host or cells: H295R adrenocortical carcinoma cells
T1 sequence (P05093 1-508): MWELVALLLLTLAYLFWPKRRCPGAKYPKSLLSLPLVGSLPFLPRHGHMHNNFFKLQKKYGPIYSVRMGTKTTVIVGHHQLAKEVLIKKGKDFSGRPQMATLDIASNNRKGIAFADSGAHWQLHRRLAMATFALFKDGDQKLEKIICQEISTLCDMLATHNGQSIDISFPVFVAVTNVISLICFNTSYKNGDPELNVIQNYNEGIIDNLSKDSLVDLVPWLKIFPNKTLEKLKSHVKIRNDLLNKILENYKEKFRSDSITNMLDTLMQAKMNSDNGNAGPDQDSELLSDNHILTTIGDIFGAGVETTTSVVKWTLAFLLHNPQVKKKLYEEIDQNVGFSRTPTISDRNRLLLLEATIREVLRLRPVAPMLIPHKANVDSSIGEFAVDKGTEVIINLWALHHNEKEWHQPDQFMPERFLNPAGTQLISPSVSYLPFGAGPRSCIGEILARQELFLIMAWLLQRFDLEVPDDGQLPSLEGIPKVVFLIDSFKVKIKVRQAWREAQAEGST
Briefly: Cell-based human CYP17 inhibition assay, H295R cells. Particulars: 16 hours, read-out: CYP17 (human H295R adrenal cells). The protocol:
Cell-Based Human CYP17 Inhibition Assay
1. H295R Adrenocortical Carcinoma Cells and Growth Media: The media for the H295R Adrenocortical carcinoma cells [NCI-H295A, ATCC Number CRL-2128, American Type Culture Collection, Manassas, Va., US] (500 mL) was a DMEM:F12 Mix 1:1 with 5% (2 mL) BD Nu Serum; 1% (5 mL) ITS+Premix [BD Biosciences] and 1% Penstrep. 2. LNCap-CYP17 Cells and Growth Media: Full length hCYP17a1 gene (NCBI Reference Sequence: NM_000102.3) was cloned in pcDNA3.1(+) vector between HindIII and XhoI site. The pcDNA3.1(+) vector contains the Neomycin resistance gene and was used for selection of stable cell line. The hCYP17a1 containing pcDNA3.1(+) was transfected into LNCap cells to create the LNCap-CYP17 cell line. The media for the LNCaP-CYP17 cells was RPMI 1640, 10% FBS, 1% PenStrep, Geneticin 400 μg/mL.
The H295R cells or LNCaP-hCYP17 cells were subcultured and 30,000 cells per well were seeded in a poly-d lysine plate and incubated overnight at 37° C. The next day the media was removed and 200 μL of fresh media with ^3H3-17α-hydroxy-pregnenolone (1:1000) was added. 50 μL of serially diluted compounds from a 5× plate (5 times the final desired concentration) was added. The working concentration range for active, new compounds started from a high concentration of 10 μM with 3-fold serial dilutions generating up to 10 concentrations. The serial dilution in the 100× plate (in DMSO) and the stamping of a 5× plate (in media) from the 100× plate were carried out using a TECAN liquid handling device.
The plates were incubated overnight (16 hours) at 37° C. After 16 hours, the media was removed (approximately 220 μL) and an equal amount of chloroform was added, mixed and incubated for 30 minutes at 4 degrees. The plate was centrifuged at 4000 rpm for 15 minutes at 4° C., following which the top aqueous layer was carefully removed and added into a new deep well plate. An equal volume of activated 5% charcoal was added, mixed and incubated for 30 minutes at 4° C. The plate was then centrifuged at 4000 rpm for 15 minutes at 4° C. and the top layer carefully separated, avoiding any charcoal contamination, and placed in a white, clear bottom plate (plate cat #3610, Corning Life Sciences). An equal volume of Microscint™ 40 was added and mixed well. Following the incubation for 30 minutes, readings for the radiotracer were taken using a Microbeta® trilux.

The target in assay [2] is T2, rat CYP17 (rat testicular microsomes) (Rattus norvegicus, UniProt P11715).
T2 construct: Rat testis tissue was collected and disrupted with 30 strokes of a glass homogenizer; from tissue; host or cells: rat testis (microsomes)
T2 sequence (P11715 1-507): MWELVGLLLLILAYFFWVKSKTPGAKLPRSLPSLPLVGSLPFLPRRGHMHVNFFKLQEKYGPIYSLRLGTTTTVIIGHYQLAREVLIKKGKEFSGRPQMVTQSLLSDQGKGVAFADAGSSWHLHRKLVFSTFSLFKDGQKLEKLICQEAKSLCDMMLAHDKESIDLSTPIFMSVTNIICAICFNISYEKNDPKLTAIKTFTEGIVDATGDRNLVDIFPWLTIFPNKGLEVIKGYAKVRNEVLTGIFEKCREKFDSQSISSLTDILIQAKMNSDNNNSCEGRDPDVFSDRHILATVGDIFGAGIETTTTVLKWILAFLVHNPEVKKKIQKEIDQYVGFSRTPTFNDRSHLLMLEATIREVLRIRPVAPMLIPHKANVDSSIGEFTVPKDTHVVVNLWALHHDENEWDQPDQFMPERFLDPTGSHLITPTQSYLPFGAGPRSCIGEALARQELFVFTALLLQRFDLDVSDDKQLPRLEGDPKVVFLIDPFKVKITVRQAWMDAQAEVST
The assay is described as follows: CYP17 inhibition assay in rat testicular microsomes. Format: biochemical. The gist of the method:
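Rat testicular microsomes (150–160 μg) or yeast microsomes expressing human CYP17 (1.7 pmol) react with ³H-17α-hydroxypregnenolone (1 μCi/reaction) and 325 μM NADPH in potassium phosphate buffer, pH 7.4. Compound is pre-incubated with substrate for 15 min, then the reaction runs 60 min at 37 °C. After chloroform extraction and charcoal treatment, aqueous radioactivity is measured by scintillation counting.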

On to `CC(O)(c1ccncc1)c1cnc(-c2ccc(Cl)c(C(F)(F)F)c2)s1` (stereo not drawn) [Example 39, 1-(2-(4-chloro-3-(trifluoromethyl)phenyl)thiazol-5-yl)-1-(pyridin-4-yl)ethanol], for which the IC50 in assay [1] is 50 to 200 nM; in assay [2], < 50 nM.

In the case of `CC(C)C(O)(c1ccncc1)c1cnc(-c2ccc(F)cc2)s1` (stereo not drawn) [Example 33, 1-[2-(4-Fluoro-phenyl)-thiazol-5-yl]-2-methyl-1-pyridin-4-yl-propan-1-ol], the IC50 in assay [1] and in assay [2] was < 50 nM each time.

Consider `CC(O)(c1ccncc1)c1ccc(-c2ccc(F)cc2)o1` (stereo not drawn) [Example 37, 1-(5-(4-fluorophenyl)furan-2-yl)-1-(pyridin-4-yl)ethanol], for which the IC50 in assay [1] and in assay [2] was 50 to 200 nM throughout.

As to `Cn1cc(-c2ncc(C(C)(O)c3ccncc3)o2)ccc1=O` (stereo not drawn) [Example 60, 5-(5-(1-hydroxy-1-(pyridin-4-yl)-ethyl)oxazol-2-yl)-1-methylpyridin-2(1H)-one], the IC50 in assay [1] and in assay [2] was 201 to 10000 nM in each case.

For `CC(O)(c1ccncc1)c1ncc(-c2ccc(F)cc2)s1` (single isomer, unassigned; (-)) [Example 54, (−)-1-(5-(4-fluorophenyl)thiazol-2-yl)-1-(pyridin-4-yl)ethanol], the IC50 in assay [1] and in assay [2] was < 50 nM each time.

As for `OC1(c2cnc(-c3ccc(F)cc3)s2)CCCc2cnccc21` (stereo not drawn) [Example 25, 5-(2-(4-fluorophenyl)thiazol-5-yl)-5,6,7,8-tetrahydroisoquinolin-5-ol], the results for the IC50 in assay [1] and in assay [2] were 201 to 10000 nM and < 50 nM, respectively.

On to `CCC(O)(c1ccncc1)c1ncc(-c2ccc(F)cc2)s1` (stereo not drawn) [Example 13, 1-(5-(4-Fluorophenyl)thiazol-2-yl)-1-(pyridin-4-yl)propan-1-ol], for which the IC50 is 201 to 10000 nM in assay [1] and < 50 nM in assay [2].

Consider `CC(O)(c1ccncc1)c1cnc(-c2ccc(C#N)cc2)s1` (stereo not drawn) [Example 56, 4-(5-(1-hydroxy-1-(pyridin-4-yl)ethyl)thiazol-2-yl)benzonitrile], for which the IC50 in assay [1] is 50 to 200 nM; in assay [2], < 50 nM.

`CC(O)(c1ccncc1)c1cnc(-c2ccc(Cl)c(Cl)c2)s1` (stereo not drawn) [Example 43, 1-(2-(3,4-dichlorophenyl)thiazol-5-yl)-1-(pyridin-4-yl)ethanol]: the IC50 in assay [1] and in assay [2] was < 50 nM each time.

Turning to `OC(c1ccncc1)c1cnc(-c2ccc(F)cc2)s1` (stereo not drawn) [Example 24, [2-(4-fluorophenyl)-1,3-thiazol-5-yl](pyridin-4-yl)methanol], the figures for the IC50 in assay [1] and in assay [2] were 50 to 200 nM and < 50 nM, respectively.

Turning to `CC(O)(c1ccncc1)c1cnc(-c2ccc(F)c(F)c2)s1` (stereo not drawn) [Example 44, 1-(2-(3,4-difluorophenyl)thiazol-5-yl)-1-(pyridin-4-yl)ethanol], the IC50 in assay [1] and in assay [2] was < 50 nM each time.

Turning to `CC(O)(c1ccncc1)c1cnc(-c2ccc(F)cc2F)s1` (stereo not drawn) [Example 27, 1-[2-(2,4-Difluoro-phenyl)-thiazol-5-yl]-1-pyridin-4-yl-ethanol], the IC50 in assay [1] and in assay [2] was < 50 nM in each case.

`COc1ccc(-c2ccc(C(C)(O)c3ccncc3)nc2)cc1F` (stereo not drawn) [Example 6, 1-(5-(3-fluoro-4-methoxyphenyl)-pyridin-2-yl)-1-(pyridin-4-yl)ethanol]: the IC50 in assay [1] is 50 to 200 nM; in assay [2] it was < 50 nM.

As to `CC(O)(c1ccncc1)c1nnc(-c2ccc(F)cc2)s1` (stereo not drawn) [Example 61, 1-(5-(4-fluorophenyl)-1,3,4-thiadiazol-2-yl)-1-(pyridin-4-yl)ethanol], the IC50 in assay [1] was 50 to 200 nM; in assay [2] it was < 50 nM.

For `CC(=O)NC(C)(c1ccncc1)c1cnc(-c2ccc(F)cc2)s1` (stereo not drawn) [Example 69, N-(1-(2-(4-Fluorophenyl)thiazol-5-yl)-1-(pyridin-4-yl)ethyl)acetamide], the IC50 in assay [1] was 201 to 10000 nM; in assay [2], 50 to 200 nM.
